Measurements: US5244884A, “Thionated analogues of thyrotropin releasing hormone” (The United States of America as represented by the …, priority 1992, dated 1993)

Assays:
[1] = target: T1, TRH receptor binding sites in pituitary (Rattus norvegicus, UniProt Q01717); test: Receptor binding assay, [3H][3-Me-His2]-TRH competition, anterior pituitary homogenate; set-up: species or system rat (Sprague-Dawley); details: rat anterior pituitary membranes; [3H][3-Me-His2]-TRH 3 to 5 nM; 4-6 °C, 2.5 hours; mean ± S.E.M.
T1 construct: from tissue; host or cells: rat anterior pituitary membrane pellet (homogenate, 39000 g)
T1 sequence (Q01717 1-412): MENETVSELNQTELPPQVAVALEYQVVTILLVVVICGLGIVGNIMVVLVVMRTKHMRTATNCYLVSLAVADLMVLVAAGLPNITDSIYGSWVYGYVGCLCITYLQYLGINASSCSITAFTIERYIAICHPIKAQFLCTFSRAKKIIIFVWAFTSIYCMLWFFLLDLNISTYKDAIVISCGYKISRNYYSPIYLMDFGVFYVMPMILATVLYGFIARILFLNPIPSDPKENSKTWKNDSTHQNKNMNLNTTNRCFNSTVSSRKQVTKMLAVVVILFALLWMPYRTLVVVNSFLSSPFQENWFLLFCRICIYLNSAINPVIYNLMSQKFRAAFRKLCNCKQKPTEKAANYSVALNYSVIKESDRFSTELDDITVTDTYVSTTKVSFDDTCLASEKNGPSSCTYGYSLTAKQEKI
Description: (§1) Adult, male Sprague-Dawley rats were obtained from Taconic Farms (Germantown, N.Y.) and housed at controlled temperature (22° C.) and light cycle (12/12 h) with free access to food and water. On the experimental day, six to eight animals were rapidly decapitated and their brains quickly removed and placed on a cold plate. Anterior pituitary and cortex tissue samples were obtained and processed immediately for receptor-binding experiments.
(§2) All steps of the tissue preparation and binding assays were done on ice. After weighing, pooled tissue samples were homogenized in 25 ml of ice-cold sodium phosphate buffer (0.1M, pH 7.4-7.5), using a Brinkmann Polytron homogenizer (setting 7, 15-20 s). The homogenates were then centrifuged in a refrigerated Sorvall RC5B centrifuge at 39000 g for 30 minutes. The supernatants were discharged and the pellets were resuspended to a concentration of 50 (pituitary) or 100 mg wet weight/ml (ww/ml, cortex) in ice-cold sodium phosphate buffer containing 177 μM Bacitracin.
(§3) Competition experiments were performed by incubating mixtures of tissue resuspensions, [3H][3-Me-His2]-TRH (87 Ci/mmol, Amersham) in 3 to 5 nM final concentration and increasing amounts of analog in a total volume of 100 μl/vial at 4° to 6° C. for 2.5 hours. In order to limit loss of peptides by adherence to glass, 0.05% bovine serum albumin was included in the assays. Nonspecific binding was determined in the presence of 10 μM TRH. The incubation period was terminated by vacuum filtration of the incubation mixture through Whatman GF/B glass filters, using a 48-well cell harvester (Brandel Inc., Gaithersburg, Md.), followed by four rinses with 4 ml each of ice-cold 0.9% NaCl solution. Filters were then placed in scintillation vials and kept overnight in 5 ml of watermiscible scintillation fluid (Beckman Ready-SolvTM HP) each. Bound radioactivity was measured after thorough shaking of the vials on the following day in an LKB 1218 Rackbeta liquid scintillation counter with automatic correction for tritium quenching. Specific binding was calculated as total binding minus nonspecific binding. Inhibition constants, Ki, were determined according to Cheng and Prusoff (1973) using the radioligand-binding analysis software LIGAND (Elsevier-Biosoft; Munson and Rodbard, 1980). Unless otherwise stated, data in tables and figures represent mean values±S.E.M. (standard error of the mean of separate experiments done in duplicate).

TSH release [2] = details: relative to TRH; cited from earlier work
[3] = target: TRH receptor binding sites in cortex; test: Receptor binding assay, [3H][3-Me-His2]-TRH competition, cortex homogenate; set-up: species or system rat (Sprague-Dawley); details: rat cortex membranes; [3H][3-Me-His2]-TRH 3 to 5 nM; 4-6 °C, 2.5 hours; mean ± S.E.M.
Description: as §1, §2
as §3, with “The incubation period was terminated by vacuum filtration of the incubation mixture through Whatman GF/B glass filters, using a 48-well cell harvester (Brandel Inc., Gaithersburg, Md.), followed by four rinses with 4 ml each of ice-cold 0.9% NaCl solution.” left out, “Unless otherwise stated, data in tables and figures represent mean values±S.E.M. (standard error of the mean of separate experiments done in duplicate).” left out

TRH receptor = details: compared with natural TRH; reported by Kruszynski; cited from earlier work
TSH release [4] = details: compared with natural TRH; reported by Kruszynski; cited from earlier work

Row | SMILES | Ki [1] [nM] | potency in stimulating TSH release compared with TRH (TSH release [2]) | Ki [3] [nM] | TRH receptor binding affinity (TRH receptor) | TSH releasing activity (TSH release [4])
1 | NC(=S)[C@@H]1CCCN1C(=O)[C@H](Cc1c[nH]cn1)NC(=O)[C@@H]1CCC(=S)N1 [Example 2, L-thiopyroglutamyl-L-histidyl-L-proline thioamide] | 85.4 ± 17.8 | more potent than TRH | 86.1 ± 6.3 | – | –
2 | NC(=S)[C@@H]1CCCN1C(=O)[C@H](Cc1c[nH]cn1)NC(=O)[C@@H]1CCC(=O)N1 [Example 3, L-pyroglutamyl-L-histidyl-L-proline thioamide] | 8 ± 0.2 | – | 93.1 ± 16.5 | matching that of natural TRH | matching that of natural TRH
3 | NC(=O)[C@@H]1CCCN1C(=O)[C@H](Cc1c[nH]cn1)NC(=O)[C@@H]1CCC(=S)N1 [Example 1, L-thiopyroglutamyl-L-histidyl-L-oroline amide] | 31.9 ± 2.9 | – | – | – | –
4 | NC(=O)[C@@H]1CCCN1C(=O)[C@H](Cc1c[nH]cn1)NC(=O)[C@@H]1CCC(=O)N1 [TRH, L-pyroglutamyl-L-histidyl-L-proline-amide, reference compound] | 24.1 ± 14.2 | – | 26.1 ± 4.5 | – | –
